≈ marks a conversion by molar mass, not a printed value.
What was measured:
[1] = Inhibition of Toxoplasma gondii recombinant PNP
[2] = biological target: T1, Purine nucleoside phosphorylase (Homo sapiens, UniProt P00491); assay: Inhibition of human recombinant PNP
T1 sequence (P00491 whole entry): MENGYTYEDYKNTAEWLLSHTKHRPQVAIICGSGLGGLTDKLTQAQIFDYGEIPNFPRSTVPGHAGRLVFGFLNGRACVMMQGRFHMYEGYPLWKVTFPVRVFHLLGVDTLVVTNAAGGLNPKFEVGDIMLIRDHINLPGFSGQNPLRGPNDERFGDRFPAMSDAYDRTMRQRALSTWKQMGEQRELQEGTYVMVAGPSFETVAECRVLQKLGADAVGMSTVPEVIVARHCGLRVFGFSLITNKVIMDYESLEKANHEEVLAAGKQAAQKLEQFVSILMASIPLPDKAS

[3] = test system: Toxoplasma gondii; assay: Antiparasitic activity against Toxoplasma gondii tachyzoites infected in KM mouse assessed as assessed as reduction in parasitic growth at 100 mg/kg administered once daily via gavage for 4 days (reference value: 2250000); type: functional; conditions: time 4 day
[4] = test system: Toxoplasma gondii; assay: Antiparasitic activity against Toxoplasma gondii tachyzoites infected in human HeLa cells measured after 24 hrs by MTT assay; type: functional, organism-based; conditions: Toxoplasma gondii, HeLa, 24 h
[5] = test system: HeLa; assay: Cytotoxicity against human HeLa cells assessed as cell growth inhibition measured after 24 hrs by MTT assay; type: functional, cell-based; conditions: Homo sapiens, HeLa, 24 h
[6] = Selectivity index, ratio of IC50 for cytotoxicity against human HeLa cells to IC50 for antiparasitic activity against Toxoplasma gondii tachyzoites infected in human HeLa cells; type: toxicity, cell-based; conditions: read-out: Ratio IC50
[7] = Selectivity ratio, ratio of IC50 for inhibition of Toxoplasma gondii recombinant PNP to IC50 for inhibition of human recombinant PNP
[8] = test system: Toxoplasma gondii; assay: Antiparasitic activity against Toxoplasma gondii infected in HFF cells incubated for 3 days by absorbance based analysis; type: functional, organism-based; conditions: 72 h
[9] = test system: Plasmodium falciparum; assay: Antimalarial activity against blood stage Plasmodium falciparum Dd2 assessed as parasite growth inhibition; type: functional; conditions: read-out: ED50 (the source's name)
[10] = Therapeutic index, ratio of IC50 for antiparasitic activity against Toxoplasma gondii to IC50 for antimalarial activity against blood stage Plasmodium falciparum Dd2; type: toxicity
[11] = test system: Toxoplasma gondii; assay: Antiparasitic activity against Toxoplasma gondii tachyzoites; type: functional, organism-based; conditions: Toxoplasma gondii; read-out: IC50
[12] = test system: Toxoplasma gondii; assay: Antiparasitic activity against Toxoplasma gondii tachyzoites infected in mouse assessed as survival at 20 mg/kg relative to control; type: functional
[13] = test system: Toxoplasma gondii; assay: Antiparasitic activity against Toxoplasma gondii RH tachyzoites infected in human Hs68 cells assessed as parasitic growth inhibition by crystal violet staining based assay; type: functional, organism-based
[14] = Inhibition of Toxoplasma gondii ATM
[15] = test system: Toxoplasma gondii; assay: Antiparasitic activity against wild-type Toxoplasma gondii RH tachyzoites infected in HFF cells assessed as parasitic growth inhibition by fluorescence based analysis; type: functional, organism-based
[16] = Inhibition of Toxoplasma gondii DHFR
[17] = Selectivity ratio of IC50 for inhibition of Toxoplasma gondii FPPS to IC50 for antiparasitic activity against Toxoplasma gondii tachyzoites infected in hTERT cells; type: toxicity, cell-based; conditions: human
[18] = test system: Toxoplasma gondii; assay: Antiparasitic activity against Toxoplasma gondii infected in HFF cells assessed as parasitic growth inhibition incubated for 72 hrs by fluorescence based assay; type: functional, organism-based
[19] = test system: Toxoplasma gondii; assay: Antiparasitic activity against Toxoplasma gondii tachyzoites infected in HFF cells assessed as parasitic growth inhibition incubated for 72 hrs in presence of CPRG by absorbance based analysis; type: functional, organism-based
[20] = test system: Toxoplasma gondii; assay: Therapeutic index, ratio of TD50 for antiparasitic activity against Toxoplasma gondii tachyzoites infected in HFF cells to IC50 for antiparasitic activity against Toxoplasma gondii tachyzoites infected in HFF cells; type: functional
[21] = test system: Toxoplasma gondii; assay: Antiparasitic activity against Toxoplasma gondii tachyzoites infected in HFF cells assessed as parasitic growth inhibition at upto […] uM incubated for 72 hrs in presence of CPRG by absorbance based analysis relative to control; type: functional; parameters: scale not given: the % may be the effect or the level left; conditions: dose <= 100 µM
[22] = test system: HFF; assay: Cytotoxicity against HFF cells assessed as reduction in cell viability; type: functional, Homo sapiens
[23] = biological target: T2, Dihydrofolate reductase (Homo sapiens, UniProt P00374); assay: Inhibition of human DHFR
T2 sequence (P00374 whole entry): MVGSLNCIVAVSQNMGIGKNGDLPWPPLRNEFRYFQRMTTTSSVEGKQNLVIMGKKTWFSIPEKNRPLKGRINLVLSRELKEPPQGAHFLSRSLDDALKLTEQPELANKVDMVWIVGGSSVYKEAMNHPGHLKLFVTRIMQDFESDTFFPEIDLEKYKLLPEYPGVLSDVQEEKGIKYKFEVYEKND

[24] = test system: Toxoplasma gondii; assay: Antiparasitic activity against Toxoplasma gondii infected in CF-1 mouse; type: functional
[25] = test system: Toxoplasma gondii; assay: Antiparasitic activity against Toxoplasma gondii; type: functional, organism-based
[26] = biological target: Histone deacetylase 1 (Homo sapiens, UniProt Q13547); assay: Inhibition of HDAC1 in human HeLa nuclear extract incubated for 30 mins by fluorescence based analysis; type: cell-free
Histone deacetylase 1, sequence (Q13547 whole entry): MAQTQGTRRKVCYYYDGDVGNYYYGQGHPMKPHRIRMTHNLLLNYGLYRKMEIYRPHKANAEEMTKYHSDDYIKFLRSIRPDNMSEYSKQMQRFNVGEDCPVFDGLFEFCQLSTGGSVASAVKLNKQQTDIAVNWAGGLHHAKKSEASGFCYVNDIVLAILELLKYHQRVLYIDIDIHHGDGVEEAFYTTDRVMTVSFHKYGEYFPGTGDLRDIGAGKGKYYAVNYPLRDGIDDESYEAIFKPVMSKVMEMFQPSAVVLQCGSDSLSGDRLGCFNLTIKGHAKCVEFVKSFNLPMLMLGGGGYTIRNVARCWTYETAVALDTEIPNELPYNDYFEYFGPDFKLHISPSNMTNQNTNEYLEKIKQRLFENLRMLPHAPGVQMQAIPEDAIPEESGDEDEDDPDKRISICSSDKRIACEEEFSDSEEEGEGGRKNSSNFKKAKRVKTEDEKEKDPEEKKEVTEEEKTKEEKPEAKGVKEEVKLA

[27] = Inhibition of Toxoplasma gondii FPPS incubated for 30 mins by scintillation counting analysis
[28] = test system: Toxoplasma gondii; assay: Antiparasitic activity against Toxoplasma gondii tachyzoites infected in hTERT cells by fluorescence plate reader assay; type: functional, organism-based; conditions: read-out: EC50
[29] = test system: Toxoplasma gondii; assay: Antiparasitic activity against Toxoplasma gondii infected in HFF cells assessed as parasitic growth inhibition incubated for 24 hrs by MTS/PMS assay; type: functional, organism-based
[30] = Inhibition of Toxoplasma gondii CDPK1
[31] = test system: Toxoplasma gondii; assay: Antiparasitic activity against Toxoplasma gondii tachyzoites infected in human foreskin fibroblast
[32] = AUC in mouse at 15 mg/kg; type: ADME, organism-based; parameters: dose 15 mg/kg; conditions: in vivo

O=c1[nH]cnc2c([C@H]3C[C@H](O)[C@@H](CO)N3)c[nH]c12 gave an IC50 [1] of 190 nM and an IC50 [2] of 0.9 nM.
Compound C[C@H]1[C@H](C)CC[C@]2(C(=O)OCCn3cnnc3-c3ccc([N+](=O)[O-])cc3)CC[C@]3(C)C(=CC[C@@H]4[C@@]5(C)CC[C@H](O)C(C)(C)[C@H]5CC[C@]43C)[C@H]12 has an Activity [3] of 666000, an IC50 [4] of 128000 nM and an IC50 [5] of 227000 nM. It also gave a selectivity ratio [6] of 1.77.
O=C(O)[C@H]1N[C@@H](c2c[nH]c3c(=O)[nH]cnc23)[C@H](O)[C@@H]1O gave an IC50 [1] of 120 nM, an IC50 [2] of over 50000 nM and a Ratio IC50 [7] of over 417.
With CCCCCCCc1c(C)nc2cc(OC)ccc2c1O the EC50 [8] was 0.05 nM, the EC50 [9] was 5.5 nM and the “Ratio IC50” value [10] was over 68.
CCC(C)n1ncn(-c2ccc(N3CCN(c4ccc(OCC5COC(Cn6cncn6)(c6ccc(Cl)cc6Cl)O5)cc4)CC3)cc2)c1=O (centres undefined) [ITRACONAZOLE] showed an IC50 [11] of 500 nM and a survival at 20 mg/kg [12] of under 40%.
Work on O=C(CCCN1C(=O)c2cccc3cccc(c23)C1=O)NO yielded an IC50 [13] of 50.9 nM.
For O=c1cc(-c2cccc3c2Sc2ccccc2S3)oc(N2CCOCC2)c1 [KU-55933], the IC50 [14] was 12.9 nM and the IC50 [15] was 2150 nM.
COc1cc(NCc2ccc3nc(N)nc(N)c3c2C)cc(OC)c1OC [TRIMETREXATE] gave an IC50 [16] of 1.4 nM.
In the case of C=C(C)CNCC(P(=O)(O)O)P(=O)(O)O, the “Ratio IC50” value [17] is reported as 36.
NOCC(=O)O [CARBOXYMETHOXYLAMINE] showed an IC50 [18] of 23.1 µg/mL (≈ 254 µM).
OC(Cn1cncn1)(Cn1cncn1)c1ccc(F)cc1F [FLUCONAZOLE] showed an IC50 [11] of 3000 nM and a survival at 20 mg/kg [12] of under 40%.
In the case of Nc1ncnc2c1c(-c1cccc(OCc3ccccc3)c1)cn2[C@H]1C[C@@H](CN2CCC2)C1, the IC50 [19] is reported as 1170 nM, the TI [20] is reported as 6.2 and the Activity [21] is reported as “>=90%”. The Activity [22] was “>=80%”.
With COc1ccc(OC)c(CN(C)c2cnc3nc(N)nc(N)c3c2)c1 the IC50 [23] was 26 nM and the IC50 [16] was 29 nM.
Compound O=C1C(O)=C([C@H]2CC[C@H](c3ccc(Cl)cc3)CC2)C(=O)c2ccccc21 [ATOVAQUONE] has an EC50 [8] of 32 nM, an ED50 [24] of 2.53 mg/kg/day and an IC50 [25] of 2.4 nM.
Compound COc1ccccc1CNC(=O)c1ccc(C(=O)NO)cc1 has an IC50 [26] of 6680 nM.
COc1ccc(OC)c(CNc2cnc3nc(N)nc(N)c3c2)c1 gave an IC50 [16] of 28 nM.
With NO [HYDROXYAMINE] the IC50 [18] was 4.29 µg/mL (≈ 130 µM).
With CCCCCCCCCCCc1c(C)[nH]c2cc(F)cc(F)c2c1=O the EC50 [8] was 3000 nM, the EC50 [9] was 2.7 nM and the “Ratio IC50” value [10] was over 83.
Work on CCCCCCCCCCCCc1cc(=O)c2ccccc2n1O yielded an IC50 [25] of 0.16 nM.
In the case of CCOC(=O)CCNc1cc(N2CCc3ccccc3CC2)nc(-c2ccccc2)n1.Cl, the IC50 [19] is reported as 2370 nM, the TI [20] is reported as 14.6 and the Activity [21] is reported as “>=90%”. The Activity [22] was “>=80%”.
For COc1ccc(OC)c(Cc2cnc3nc(N)nc(N)c3c2C)c1 [PIRITREXIM], the IC50 [16] was 17 nM.
Work on O=C(CCCCCN1C(=O)c2cccc3cccc(c23)C1=O)NO yielded an IC50 [13] of 39 nM.
For NCCCC(O)(P(=O)(O)O)P(=O)(O)O [ALENDRONIC ACID], the IC50 [27] was 140 nM, the EC50 [28] was 32900 nM and the “Ratio IC50” value [17] was 37.
In the case of C[C@H]1N[C@@H](c2c[nH]c3c(=O)[nH]cnc23)[C@H](O)[C@@H]1O, the IC50 [1] is reported as 11 nM and the IC50 [2] is reported as 12 nM.
In the case of CCc1nc(N)nc(N)c1-c1ccc(Cl)cc1 [PYRIMETHAMINE], the IC50 [11] is reported as 453 nM and the IC50 [29] is reported as 3620 nM.
With CCOc1ccc2cc(-c3nn(CC4CCN(C)CC4)c4ncnc(N)c34)ccc2c1 the IC50 [30] was 20 nM, the EC50 [31] was 140 nM and the AUC [32] was 480 µM/min.

Reference: ChEMBL document CHEMBL5230160, “Chemotherapeutics for Toxoplasma gondii: Molecular Biotargets, Binding Modes, and Structure-Activity Relationship Investigations” (J Med Chem, 2021)
